Reference: patent US10414774B2, “Compound useful for altering the levels of bile acids for the treatment of diabetes and cardiometabolc disease” (Merck Sharp & Dohme Corp., priority 2016, dated 2019)

target: T1, Human CYP8B1 (Homo sapiens, UniProt Q9UNU6); assay: Human CYP8B1 Liver Microsome Assay; settings: Human CYP8B1 IC50, human liver microsomes; substrate 7a-hydroxy-4-cholesten-3-one, NADPH; RapidFire MS detection of 7α,12α-dihydroxy-4-cholesten-3-one
T1 sequence (Q9UNU6 1-501): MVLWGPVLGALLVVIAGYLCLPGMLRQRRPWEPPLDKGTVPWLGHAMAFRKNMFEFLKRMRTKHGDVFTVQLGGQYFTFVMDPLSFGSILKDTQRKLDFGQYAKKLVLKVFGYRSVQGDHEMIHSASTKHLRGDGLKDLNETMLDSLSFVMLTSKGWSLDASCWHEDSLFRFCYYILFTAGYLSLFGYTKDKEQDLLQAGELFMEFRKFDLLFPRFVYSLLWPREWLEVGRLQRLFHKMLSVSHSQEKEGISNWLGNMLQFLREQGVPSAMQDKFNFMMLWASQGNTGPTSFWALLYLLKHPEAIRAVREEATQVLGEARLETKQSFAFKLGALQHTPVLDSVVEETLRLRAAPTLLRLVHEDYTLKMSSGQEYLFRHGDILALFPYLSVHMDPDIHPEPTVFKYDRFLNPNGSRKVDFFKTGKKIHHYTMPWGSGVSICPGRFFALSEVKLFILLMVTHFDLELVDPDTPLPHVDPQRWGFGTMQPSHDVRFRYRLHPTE

IC50 [nM] | Compound
109 | Cc1nc2ccc(Br)cc2c(N2CCC(C(=O)N3CCn4c(nnc4C(F)(F)F)C3)CC2)c1C#N [Example 48, 6-bromo-2-methyl-4-(4-(3-(trifluoromethyl)-5,6,7,8-tetrahydro-[1,2,4]triazolo[4,3-a]pyrazine-7-carbonyl)piperidin-1-yl)quinoline-3-carbonitrile]
774 | Cc1nc2ccc(F)c(F)c2c(N2CCC(C(=O)N3CCn4c(nnc4C(F)(F)F)C3)CC2)c1C#N [Example 51, 5,6-difluoro-2-methyl-4-(4-(3-(trifluoromethyl)-5,6,7,8-tetrahydro-[1,2,4]triazolo[4,3-a]pyrazine-7-carbonyl)piperidin-1-yl)quinoline-3-carbontrile]
1.4 | C[C@@H]1CN(c2c(C#N)cnc3cc(O)ccc23)CC[C@@H]1C(=O)N1CCn2c(nnc2C(F)(F)F)C1 [Example 5, 7-hydroxy-4-[(3S,4S)-3-methyl-4-{[3-(trifluoromethyl)-5,6-dihydro[1,2,4]triazolo[4,3-a]pyrazin-7(8H)-yl]carbonyl}piperidin-1-yl]quinoline-3-carbonitrile]
5.6 | N#Cc1cnc2ccc(Cl)cc2c1N1CCC(C(=O)N2CCc3c(C4CC4)n[nH]c3C2)CC1 [Example 107, 6-chloro-4-{4-[(3-cyclopropyl-1,4,5,7-tetrahydro-6H-pyrazolo[3,4-c]pyridin-6-yl)carbonyl]piperidin-1-yl}quinoline-3-carbonitrile]
2.1 | CC[C@@H]1CN(c2c(C#N)cnc3c(F)c(OC)ccc23)CC[C@@H]1C(=O)N1CCn2c(nnc2C(F)(F)F)C1 [Example 74b, 4-[(3S,4S)-3-ethyl-4-{[3-(trifluoromethyl)-5,6-dihydro[1,2,4]triazolo[4,3-a]pyrazin-7(8H)-yl]carbonyl}piperidin-1-yl]-8-fluoro-7-methoxyquinoline-3-carbonitrile]
0.4 | C[C@@H]1CN(c2c(C#N)cnc3cc(C(F)(F)F)ccc23)CC[C@@H]1C(=O)N1CCn2c(nnc2C(F)(F)F)C1 [Example 24, 4-((3S,4S)-3-methyl-4-(3-(trifluoromethyl)-5,6,7,8-tetrahydro-[1,2,4]triazolo[4,3-a]pyrazine-7-carbonyl)piperidin-1-yl)-7-(trifluoromethyl)quinoline-3-carbonitrile]
8.1 | CCc1nnc2n1CCN(C(=O)C1CCN(c3c(C#N)cnc4ccc(Cl)cc34)CC1)C2 [Example 106, 6-chloro-4-{4-[(3-ethyl-5,6-dihydro[1,2,4]triazolo[4,3-a]pyrazin-7(8H)-yl)carbonyl]piperidin-1-yl}quinoline-3-carbonitrile]
6.4 | CC1CC(C(=O)N2CCn3c(nnc3C(F)(F)F)C2)CCN1c1c(C#N)cnc2ccc(Cl)cc12 (single isomer, unassigned) [Example 73a, 6-chloro-4-[(2R,4R) or (2S,4S)-2-methyl-4-{[3-(trifluoromethyl)-5,6-dihydro[1,2,4]triazolo[4,3-a]pyrazin-7(8H)-yl]carbonyl}piperidin-1-yl]quinoline-3-carbonitrile]
0.36 | C[C@@H]1CN(c2c(C#N)cnc3cc(F)c(F)cc23)CC[C@@H]1C(=O)N1CCn2c(nnc2C(F)(F)F)C1 [Example 25, 6,7-difluoro-4-[(3S,4S)-3-methyl-4-{[3-(trifluoromethyl)-5,6-dihydro[1,2,4]triazolo[4,3-a]pyrazin-7(8H)-yl]carbonyl}piperidin-1-yl]quinoline-3-carbonitrile]
2.9 | COc1ccc2nc(C)c(C#N)c(N3CC[C@H](C(=O)N4CCn5c(nnc5C(F)(F)F)C4)[C@H](C)C3)c2c1 [Example 32, 6-methoxy-2-methyl-4-[(3S,4S)-3-methyl-4-{[3-(trifluoromethyl)-5,6-dihydro[1,2,4]triazolo[4,3-a]pyrazin-7(8H)-yl]carbonyl}piperidin-1-yl]quinoline-3-carbonitrile]
2.8 | Cc1nc2c(F)cc(F)cc2c(N2CC[C@H](C(=O)N3CCn4c(nnc4C(F)(F)F)C3)[C@H](C)C2)c1C#N [Example 10, 6,8-difluoro-2-methyl-4-[(3S,4S)-3-methyl-4-{[3-(trifluoromethyl)-5,6-dihydro[1,2,4]triazolo[4,3-a]pyrazin-7(8H)-yl]carbonyl}piperidin-1-yl]quinoline-3-carbonitrile]
0.22 | C[C@@H]1CN(c2c(C#N)cnc3cc(OC(F)(F)F)ccc23)CC[C@@H]1C(=O)N1CCn2c(nnc2C(F)(F)F)C1 [Example 22, 4-[(3S,4S)-3-methyl-4-{[3-(trifluoromethyl)-5,6-dihydro[1,2,4]triazolo[4,3-a]pyrazin-7(8H)-yl]carbonyl}piperidin-1-yl]-7-(trifluoromethoxy)quinoline-3-carbonitrile]
1.1 | C[C@@H]1CN(c2c(C#N)cnc3cc(C4CC4)ccc23)CC[C@@H]1C(=O)N1CCn2c(nnc2C(F)(F)F)C1 [Example 63]
1.4 | COc1cccc2nc(C)c(C#N)c(N3CC[C@H](C(=O)N4CCn5c(nnc5C(F)(F)F)C4)[C@H](C)C3)c12 [Example 35, 5-methoxy-2-methyl-4-[(3S,4S)-3-methyl-4-{[3-(trifluoromethyl)-5,6-dihydro[1,2,4]triazolo[4,3-a]pyrazin-7(8H)-yl]carbonyl}piperidin-1-yl]quinoline-3-carbonitrile]
17 | Cc1nc2ccc(Cl)cc2c(N2CC[C@H](C(=O)N3CCc4[nH]ncc4C3)[C@H](C)C2)c1C#N [Example 95, 6-chloro-2-methyl-4-[(3S,4S)-3-methyl-4-(1,4,6,7-tetrahydro-5H-pyrazolo[4,3-c]pyridin-5-ylcarbonyl)piperidin-1-yl]quinoline-3-carbonitrile]
4.2 | Cc1nc2ccc(Cl)cc2c(N2CC[C@H](C(=O)N3CCc4oncc4C3)[C@H](C)C2)c1C#N [Example 97, 6-chloro-4-[(3S,4S)-4-(6,7-dihydroisoxazolo[4,5-c]pyridin-5(4H)-ylcarbonyl)-3-methylpiperidin-1-yl]-2-methylquinoline-3-carbonitrile]
0.3 | C[C@@H]1CN(c2c(C#N)cnc3cc(OC4CC4)ccc23)CC[C@@H]1C(=O)N1CCn2c(nnc2C(F)(F)F)C1 [Example 38, 7-(cyclopropyloxy)-4-[(3S,4S)-3-methyl-4-{[3-(trifluoromethyl)-5,6-dihydro[1,2,4]triazolo[4,3-a]pyrazin-7(8H)-yl]carbonyl}piperidin-1-yl]quinoline-3-carbonitrile]
118 | Cc1ccc2nc(C)c(C#N)c(N3CCC(C(=O)N4CCn5c(nnc5C(F)(F)F)C4)CC3)c2c1 [Example 52, 2,6-dimethyl-4-(4-(3-(trifluoromethyl)-5,6,7,8-tetrahydro-[1,2,4]triazolo[4,3-a]pyrazine-7-carbonyl)piperidin-1-yl)quinoline-3-carbonitrile]
270 | COC(=O)c1ccc2nc(C(=O)OC)c(C#N)c(N3CC[C@H](C(=O)N4CCn5c(nnc5C(F)(F)F)C4)[C@H](C)C3)c2c1 [Example 60, dimethyl 3-cyano-4-[(3S,4S)-3-methyl-4-{[3-(trifluoromethyl)-5,6-dihydro[1,2,4]triazolo[4,3-a]pyrazin-7(8H)-yl]carbonyl}piperidin-1-yl]quinoline-2,6-dicarboxylate]
0.51 | C[C@@H]1CN(c2c(C#N)cnc3c(F)c(Cl)ccc23)CC[C@@H]1C(=O)N1CCn2c(nnc2C2CC2)C1 [Example 66, 7-chloro-4-{(3S,4S)-4-[(3-cyclopropyl-5,6-dihydro[1,2,4]triazolo[4,3-a]pyrazin-7(8H)-yl)carbonyl]-3-methylpiperidin-1-yl}-8-fluoroquinoline-3-carbonitrile]
0.36 | C[C@@H]1CN(c2c(C#N)cnc3c(F)c(C(F)(F)F)ccc23)CC[C@@H]1C(=O)N1CCn2c(nnc2C(F)(F)F)C1 [Example 17, 8-fluoro-4-[(3S,4S)-3-methyl-4-{[3-(trifluoromethyl)-5,6-dihydro[1,2,4]triazolo[4,3-a]pyrazin-7(8H)-yl]carbonyl}piperidin-1-yl]-7-(trifluoromethyl)quinoline-3-carbonitrile]
1 | C[C@@H]1CN(c2c(C#N)cnc3c(F)c(Cl)c(F)cc23)CC[C@@H]1C(=O)N1CCn2c(nnc2C(F)(F)F)C1 [Example 15, 7-chloro-6,8-difluoro-4-[(3S,4S)-3-methyl-4-{[3-(trifluoromethyl)-5,6-dihdyro[1,2,4]triazolo[4,3-a]pyrazin-7(8H)-yl]carobnyl}piperidin-1-yl]quinoline-3-carbonitrile]
878 | N#Cc1cnc2ccc(Cl)cc2c1N1CCC(C(=O)N2CCn3cncc3C2)CC1 [Example 105, 6-chloro-4-[4-(5,6-dihydroimidazo[1,5-a]pyrazin-7(8H)-ylcarbonyl)piperidin-1-yl]quinoline-3-carbonitrile]
0.89 | C[C@@H]1CN(c2c(C#N)cnc3c(F)c(C4CC4)ccc23)CC[C@@H]1C(=O)N1CCn2c(nnc2C(F)(F)F)C1 [Example 67, 7-cyclopropyl-8-fluoro-4-[(3S,4S)-3-methyl-4-{[3-(trifluoromethyl)-5,6-dihydro[1,2,4]triazolo[4,3-a]pyrazin-7(8H)-yl]carbonyl}piperidin-1-yl]quinoline-3-carbonitrile]
0.4 | C[C@@H]1CN(c2c(C#N)cnc3cc(-c4ncco4)ccc23)CC[C@@H]1C(=O)N1CCn2c(nnc2C(F)(F)F)C1 [Example 89, 4-((3S,4S)-3-methyl-4-(3-(trifluoromethyl)-5,6,7,8-tetrahydro-[1,2,4]triazolo[4,3-a]pyrazine-7-carbonyl)piperidin-1-yl)-7-(oxazol-2-yl)quinoline-3-carbonitrile]
